Assay results from PubChem BioAssay AID248 (DTP/NCI, 2004).
Where “and” joins values, the source holds several entries; their conditions need not be identical. Equal entries are not always repeated. Toxic doses and inconclusive results are not listed. Cut-off read from the data, not from the text of the source: active = T/C of 150% or more; inactive = T/C below 125%.

System: L1210 leukemia ip in BDF1 mice, survival T/C
Test: NCI In Vivo Anticancer Drug Screen. Data for tumor model L1210 Leukemia (intraperitoneal) in B6D2F1 (BDF1) mice
Details: endpoint: mean survival time, higher = longer survival
Summary of the method: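 Antitumor effect is assessed in tumor-bearing animals. Survival in the compound arm is compared with a vehicle-dosed control arm and expressed as their quotient.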

[1] = dose: 100.0 mg/kg/injection, schedule: Q04DX002 (ip), vehicle: Klucel (hydroxypropylcellulose) (HPC)
[2] = dose: 200.0 mg/kg/injection, schedule: Q04DX002 (ip), vehicle: Klucel (hydroxypropylcellulose) (HPC)
[3] = dose: 400.0 mg/kg/injection, schedule: Q04DX002 (ip), vehicle: Klucel (hydroxypropylcellulose) (HPC)
[4] = dose: 25.0 mg/kg/injection, schedule: Q01DX009 (ip), vehicle: Klucel (hydroxypropylcellulose) (HPC)
[5] = dose: 50.0 mg/kg/injection, schedule: Q01DX009 (ip), vehicle: Klucel (hydroxypropylcellulose) (HPC)
[6] = dose: 100.0 mg/kg/injection, schedule: Q01DX001 (ip), vehicle: Klucel (hydroxypropylcellulose) (HPC)
[7] = dose: 100.0 mg/kg/injection, schedule: Q01DX009 (ip), vehicle: Klucel (hydroxypropylcellulose) (HPC)
[8] = dose: 100.0 mg/kg/injection, schedule: Q04DX003 (ip), vehicle: Klucel (hydroxypropylcellulose) (HPC)
[9] = dose: 200.0 mg/kg/injection, schedule: Q01DX001 (ip), vehicle: Klucel (hydroxypropylcellulose) (HPC)
[10] = dose: 400.0 mg/kg/injection, schedule: Q01DX001 (ip), vehicle: Klucel (hydroxypropylcellulose) (HPC)
[11] = dose: 100.0 mg/kg/injection, schedule: Q01DX001 (ip), vehicle: saline
[12] = dose: 125.0 mg/kg/injection, schedule: Q01DX Z (ip), vehicle: saline
[13] = dose: 200.0 mg/kg/injection, schedule: Q01DX001 (ip), vehicle: saline
[14] = dose: 200.0 mg/kg/injection, schedule: Q01DX009 (ip), vehicle: Klucel (hydroxypropylcellulose) (HPC)
[15] = dose: 200.0 mg/kg/injection, schedule: Q04DX003 (ip), vehicle: Klucel (hydroxypropylcellulose) (HPC)
[16] = dose: 400.0 mg/kg/injection, schedule: Q01DX001 (ip), vehicle: saline
[17] = dose: 400.0 mg/kg/injection, schedule: Q04DX003 (ip), vehicle: Klucel (hydroxypropylcellulose) (HPC)
[18] = dose: 100.0 mg/kg/injection, schedule: Q01DX001 (ip), vehicle: saline with Tween-80
[19] = dose: 200.0 mg/kg/injection, schedule: Q01DX001 (ip), vehicle: saline with Tween-80
[20] = dose: 400.0 mg/kg/injection, schedule: Q01DX001 (ip), vehicle: saline with Tween-80
[21] = dose: 100.0 mg/kg/injection, schedule: Q01DX009 (ip), vehicle: saline with Tween-80

Measured: T/C

CCOC(=O)c1ccc(Nc2nnc(-c3ccccc3Cl)s2)cc1
inactive: dose: 25.0 mg/kg/injection, schedule: Q04DX002 (ip), vehicle: gum acacia 98 % of control | dose: 100.0 mg/kg/injection, schedule: Q04DX002 (ip), vehicle: gum acacia 88 % of control | dose: 200.0 mg/kg/injection, schedule: Q04DX002 (ip), vehicle: gum acacia 102 % of control | dose: 400.0 mg/kg/injection, schedule: Q04DX002 (ip), vehicle: gum acacia 94 % of control

CCC(=O)Nc1ccccc1C
inactive: [1] 92 % of control | [2] 103 % of control | [3] 110 % of control

COC(=O)c1c2ccccc2[n+](C)c2ccccc12
inactive: dose: 12.5 mg/kg/injection, schedule: Q04DX003 (ip), vehicle: saline 96 % of control | dose: 25.0 mg/kg/injection, schedule: Q04DX003 (ip), vehicle: saline 100 % of control | dose: 50.0 mg/kg/injection, schedule: Q04DX003 (ip), vehicle: saline 102 % of control

CC(=O)OC(=O)c1ccc2c(c1)C(=O)c1ccccc1C2=O
inactive: [4] 100 % of control | dose: 50.0 mg/kg/injection, schedule: Q01DX001 (ip), vehicle: Klucel (hydroxypropylcellulose) (HPC) 105 % of control | [5] 98 % of control | [6] 111 % of control | [7] 102 % of control | [8] 100 % of control | [9] 111 % of control | [10] 96 % of control and 105 % of control

Cc1ccc(Nc2ccc([N+](=O)[O-])cc2)cc1
inactive: dose: 100.0 mg/kg/injection, schedule: Q01DX001 (ip), vehicle: gum acacia 93 % of control | dose: 200.0 mg/kg/injection, schedule: Q01DX001 (ip), vehicle: gum acacia 100 % of control

Cc1cc(=O)[nH]c(N/N=C/c2ccccc2O)n1
inactive: [4] 93 % of control | [5] 94 % of control | [11] 98 % of control | [7] 93 % of control | [8] 92 % of control | [12] 97 % of control | [13] 96 % of control | [14] 95 % of control and 96 % of control | [15] 94 % of control | dose: 250.0 mg/kg/injection, schedule: Q01DX Z (ip), vehicle: saline 91 % of control | [16] 96 % of control | [17] 94 % of control | dose: 500.0 mg/kg/injection, schedule: Q01DX Z (ip), vehicle: saline 91 % of control | dose: 1000.0 mg/kg/injection, schedule: Q01DX Z (ip), vehicle: saline 91 % of control

O=C(OCCCl)c1ccccc1
inactive: dose: 60.0 mg/kg/injection, schedule: Q01DX009 (ip), vehicle: Klucel (hydroxypropylcellulose) (HPC) 103 % of control | [6] 106 % of control | [8] 101 % of control | dose: 120.0 mg/kg/injection, schedule: Q01DX009 (ip), vehicle: Klucel (hydroxypropylcellulose) (HPC) 100 % of control | [9] 98 % of control | [15] 101 % of control | dose: 240.0 mg/kg/injection, schedule: Q01DX009 (ip), vehicle: Klucel (hydroxypropylcellulose) (HPC) 94 % of control | [10] 98 % of control | [17] 101 % of control

CC1=COC2(CC1)OC1CC3C4CCC5CC(O)CCC5(C)C4CCC3(C)C1C2C (stereo unspecified)
inactive: [18] 96 % of control | [19] 102 % of control | [20] 95 % of control

Nc1ccc(Cl)cc1-c1ccccc1
inactive: dose: 55.0 mg/kg/injection, schedule: Q01DX Z (ip), vehicle: saline 105 % of control | [12] 104 % of control

Nc1nc(N)nc(-c2ccccc2N=NN2CCCC2)n1
inactive: [8] 105 % of control | [15] 98 % of control | [17] 95 % of control

[CH3][Sn]([CH3])([CH3])[c]1ccc(-c2ccccc2)cc1
inactive: dose: 25.0 mg/kg/injection, schedule: Q04DX002 (ip), vehicle: Klucel (hydroxypropylcellulose) (HPC) 92 % of control | dose: 50.0 mg/kg/injection, schedule: Q04DX002 (ip), vehicle: Klucel (hydroxypropylcellulose) (HPC) 95 % of control | [1] 100 % of control

CC(=O)N=C(N)N(/N=C(C)\C=N\N(C(C)=O)C(N)=NC(C)=O)C(C)=O
inactive: dose: 15.0 mg/kg/injection, schedule: Q01DX Z (ip), vehicle: carboxymethylcellulose (CMC) 96 % of control | dose: 30.0 mg/kg/injection, schedule: Q01DX Z (ip), vehicle: carboxymethylcellulose (CMC) 96 % of control | dose: 60.0 mg/kg/injection, schedule: Q01DX Z (ip), vehicle: carboxymethylcellulose (CMC) 93 % of control and 91 % of control | dose: 120.0 mg/kg/injection, schedule: Q01DX Z (ip), vehicle: carboxymethylcellulose (CMC) 97 % of control and 90 % of control | dose: 240.0 mg/kg/injection, schedule: Q01DX Z (ip), vehicle: carboxymethylcellulose (CMC) 92 % of control | dose: 480.0 mg/kg/injection, schedule: Q01DX Z (ip), vehicle: carboxymethylcellulose (CMC) 94 % of control

CC1CCCC(C)N1N (stereo unspecified)
inactive: [18] 97 % of control | [19] 93 % of control | [20] 95 % of control

O=S(=O)(OCC1CO1)c1ccc(N=Nc2ccccc2)cc1 (stereo unspecified)
inactive: dose: 100.0 mg/kg/injection, schedule: Q01DX008 (ip), vehicle: Klucel (hydroxypropylcellulose) (HPC) 98 % of control | dose: 200.0 mg/kg/injection, schedule: Q01DX008 (ip), vehicle: Klucel (hydroxypropylcellulose) (HPC) 90 % of control | dose: 400.0 mg/kg/injection, schedule: Q01DX008 (ip), vehicle: Klucel (hydroxypropylcellulose) (HPC) 96 % of control

N#CCCOCC(COCCC#N)OCCC#N
inactive: dose: 50.0 mg/kg/injection, schedule: Q01DX001 (ip), vehicle: saline 106 % of control | dose: 50.0 mg/kg/injection, schedule: Q01DX009 (ip), vehicle: saline 124 % of control | [11] 108 % of control | dose: 100.0 mg/kg/injection, schedule: Q01DX009 (ip), vehicle: saline 108 % of control | [13] 101 % of control | [16] 92 % of control

NC(=O)NC(=O)NC(N)=O
inactive: [1] 94 % of control | [2] 102 % of control | [3] 102 % of control

O=C(NC(=S)Nc1cccc(C(F)(F)F)c1)c1cc([N+](=O)[O-])cc([N+](=O)[O-])c1
inactive: [18] 93 % of control | [21] 89 % of control | dose: 100.0 mg/kg/injection, schedule: Q04DX002 (ip), vehicle: saline with Tween-80 101 % of control | [19] 98 % of control | dose: 200.0 mg/kg/injection, schedule: Q01DX009 (ip), vehicle: saline with Tween-80 87 % of control and 89 % of control | dose: 200.0 mg/kg/injection, schedule: Q04DX002 (ip), vehicle: saline with Tween-80 94 % of control | dose: 400.0 mg/kg/injection, schedule: Q04DX002 (ip), vehicle: saline with Tween-80 97 % of control

COc1ccc(S(=O)(=O)F)cc1NC(=O)NCCOc1ccc(-n2cnc3c(=O)[nH]c(N)nc32)cc1
inactive: [6] 102 % of control | [9] 97 % of control | [10] 96 % of control

Cc1ccc(S(=O)(=O)OCC2OC3(COS(=O)(=O)c4ccc(C)cc4)OC(C)(C)OC3C2O)cc1 (stereo unspecified)
inactive: dose: 25.0 mg/kg/injection, schedule: Q01DX009 (ip), vehicle: saline with Tween-80 92 % of control | dose: 50.0 mg/kg/injection, schedule: Q01DX009 (ip), vehicle: saline with Tween-80 87 % of control | [21] 87 % of control

Cc1c(S(=O)(=O)F)ccc(O)c1[N+](=O)[O-]
inactive: [7] 104 % of control | [14] 104 % of control | dose: 400.0 mg/kg/injection, schedule: Q01DX009 (ip), vehicle: Klucel (hydroxypropylcellulose) (HPC) 110 % of control
